In PubChem BioAssay AID1259407 (Chemical Carcinogenesis Research Information System (CCRIS), 2018):
The source made the active and inactive calls. The rule behind the calls is not given here.

Test system: CCRIS mutagenicity, Ames/micronucleus/aberration tests
Experiment: CCRIS mutagenicity studies
[1] = Test System: AMES SALMONELLA TYPHIMURIUM, Strain/Indicator: TA98, Metabolic Activation: NONE, Method: STANDARD PLATE
[2] = Test System: AMES SALMONELLA TYPHIMURIUM, Strain/Indicator: TA100, Metabolic Activation: NONE, Method: STANDARD PLATE
[3] = Test System: AMES SALMONELLA TYPHIMURIUM, Strain/Indicator: TA98, Metabolic Activation: NONE, Method: PREINCUBATION
[4] = Test System: AMES SALMONELLA TYPHIMURIUM, Strain/Indicator: TA100, Metabolic Activation: NONE, Method: PREINCUBATION
[5] = Test System: AMES SALMONELLA TYPHIMURIUM, Strain/Indicator: TA98, Metabolic Activation: HAMSTER, LIVER, S-9, AROCLOR 1254 (10%), Method: PREINCUBATION
[6] = Test System: AMES SALMONELLA TYPHIMURIUM, Strain/Indicator: TA98, Metabolic Activation: RAT, LIVER, S-9, AROCLOR 1254 (10%), Method: PREINCUBATION
[7] = Test System: AMES SALMONELLA TYPHIMURIUM, Strain/Indicator: TA100, Metabolic Activation: HAMSTER, LIVER, S-9, AROCLOR 1254 (10%), Method: PREINCUBATION
[8] = Test System: AMES SALMONELLA TYPHIMURIUM, Strain/Indicator: TA100, Metabolic Activation: RAT, LIVER, S-9, AROCLOR 1254 (10%), Method: PREINCUBATION
[9] = Test System: AMES SALMONELLA TYPHIMURIUM, Strain/Indicator: TA1535, Metabolic Activation: HAMSTER, LIVER, S-9, AROCLOR 1254 (10%), Method: PREINCUBATION
[10] = Test System: AMES SALMONELLA TYPHIMURIUM, Strain/Indicator: TA1535, Metabolic Activation: NONE, Method: PREINCUBATION
[11] = Test System: AMES SALMONELLA TYPHIMURIUM, Strain/Indicator: TA1535, Metabolic Activation: RAT, LIVER, S-9, AROCLOR 1254 (10%), Method: PREINCUBATION

O=[N+]([O-])c1ccc2ccc3ccc([N+](=O)[O-])cc3c2c1
mutagenic call (Test System: AMES SALMONELLA TYPHIMURIUM, Strain/Indicator: TA98(1,8-DNP6), Metabolic Activation: NONE, Method: STANDARD PLATE): active; positive
mutagenic call (Test System: AMES SALMONELLA TYPHIMURIUM, Strain/Indicator: TA98(NR), Metabolic Activation: NONE, Method: STANDARD PLATE): active; positive
mutagenic call [1]: active; positive
mutagenic call [2]: active; positive
mutagenic call (Test System: AMES SALMONELLA TYPHIMURIUM, Strain/Indicator: YG1021, Metabolic Activation: NONE, Method: STANDARD PLATE): active; positive
mutagenic call (Test System: AMES SALMONELLA TYPHIMURIUM, Strain/Indicator: YG1024, Metabolic Activation: NONE, Method: STANDARD PLATE): active; positive
mutagenic call (Test System: AMES SALMONELLA TYPHIMURIUM, Strain/Indicator: YG1026, Metabolic Activation: NONE, Method: STANDARD PLATE): active; positive
mutagenic call (Test System: AMES SALMONELLA TYPHIMURIUM, Strain/Indicator: YG1029, Metabolic Activation: NONE, Method: STANDARD PLATE): active; positive

[Cl][Pt-2]([Cl])([Cl])[Cl]
mutagenic call [3]: active; positive
mutagenic call (Test System: AMES SALMONELLA TYPHIMURIUM, Strain/Indicator: TA98, Metabolic Activation: RAT, LIVER, S-9, AROCLOR 1254, Method: PREINCUBATION): active; positive
mutagenic call [4]: active; positive
mutagenic call (Test System: AMES SALMONELLA TYPHIMURIUM, Strain/Indicator: TA100, Metabolic Activation: RAT, LIVER, S-9, AROCLOR 1254, Method: PREINCUBATION): active; positive

NCCNCCN
mutagenic call [5]: inactive; negative
mutagenic call [3]: inactive; negative
mutagenic call [1]: inactive; negative
mutagenic call (Test System: AMES SALMONELLA TYPHIMURIUM, Strain/Indicator: TA98, Metabolic Activation: RAT LIVER S-9, PHENOBARBITAL AND BETA-NAPHTHOFLAVONE, Method: PREINCUBATION): inactive; negative
mutagenic call [6]: inactive; negative
mutagenic call (Test System: AMES SALMONELLA TYPHIMURIUM, Strain/Indicator: TA98, Metabolic Activation: RAT, LIVER, S-9, AROCLOR 1254, Method: STANDARD PLATE): inactive; negative
mutagenic call (Test System: AMES SALMONELLA TYPHIMURIUM, Strain/Indicator: TA98, Metabolic Activation: RAT, LIVER, S-9, PCB, Method: PREINCUBATION): inactive; negative
mutagenic call [7]: inactive; negative
mutagenic call [4]: inactive; negative
mutagenic call [2]: inactive; negative
mutagenic call (Test System: AMES SALMONELLA TYPHIMURIUM, Strain/Indicator: TA100, Metabolic Activation: RAT LIVER S-9, PHENOBARBITAL AND BETA-NAPHTHOFLAVONE, Method: PREINCUBATION): inactive; negative
mutagenic call [8]: inactive; negative
mutagenic call (Test System: AMES SALMONELLA TYPHIMURIUM, Strain/Indicator: TA100, Metabolic Activation: RAT, LIVER, S-9, AROCLOR 1254, Method: STANDARD PLATE): inactive; negative
mutagenic call (Test System: AMES SALMONELLA TYPHIMURIUM, Strain/Indicator: TA100, Metabolic Activation: RAT, LIVER, S-9, PCB, Method: PREINCUBATION): inactive; negative
mutagenic call [9]: inactive; negative
mutagenic call [10]: inactive; negative
mutagenic call (Test System: AMES SALMONELLA TYPHIMURIUM, Strain/Indicator: TA1535, Metabolic Activation: NONE, Method: STANDARD PLATE): inactive; negative
mutagenic call (Test System: AMES SALMONELLA TYPHIMURIUM, Strain/Indicator: TA1535, Metabolic Activation: RAT LIVER S-9, PHENOBARBITAL AND BETA-NAPHTHOFLAVONE, Method: PREINCUBATION): inactive; negative
mutagenic call [11]: inactive; negative
mutagenic call (Test System: AMES SALMONELLA TYPHIMURIUM, Strain/Indicator: TA1535, Metabolic Activation: RAT, LIVER, S-9, AROCLOR 1254, Method: STANDARD PLATE): inactive; negative
mutagenic call (Test System: AMES SALMONELLA TYPHIMURIUM, Strain/Indicator: TA1537, Metabolic Activation: HAMSTER, LIVER, S-9, AROCLOR 1254 (10%), Method: PREINCUBATION): inactive; negative
mutagenic call (Test System: AMES SALMONELLA TYPHIMURIUM, Strain/Indicator: TA1537, Metabolic Activation: NONE, Method: PREINCUBATION): inactive; negative
mutagenic call (Test System: AMES SALMONELLA TYPHIMURIUM, Strain/Indicator: TA1537, Metabolic Activation: NONE, Method: STANDARD PLATE): inactive; negative
mutagenic call (Test System: AMES SALMONELLA TYPHIMURIUM, Strain/Indicator: TA1537, Metabolic Activation: RAT LIVER S-9, PHENOBARBITAL AND BETA-NAPHTHOFLAVONE, Method: PREINCUBATION): inactive; negative
mutagenic call (Test System: AMES SALMONELLA TYPHIMURIUM, Strain/Indicator: TA1537, Metabolic Activation: RAT, LIVER, S-9, AROCLOR 1254 (10%), Method: PREINCUBATION): inactive; negative
mutagenic call (Test System: AMES SALMONELLA TYPHIMURIUM, Strain/Indicator: TA1537, Metabolic Activation: RAT, LIVER, S-9, AROCLOR 1254, Method: STANDARD PLATE): inactive; negative
mutagenic call (Test System: AMES SALMONELLA TYPHIMURIUM, Strain/Indicator: TA1538, Metabolic Activation: NONE, Method: STANDARD PLATE): inactive; negative
mutagenic call (Test System: AMES SALMONELLA TYPHIMURIUM, Strain/Indicator: TA1538, Metabolic Activation: RAT, LIVER, S-9, AROCLOR 1254, Method: STANDARD PLATE): inactive; negative
mutagenic call (Test System: CHINESE HAMSTER OVARY, Strain/Indicator: CHO (HGPRT)/6-THIOGUANINE, Metabolic Activation: NONE): inactive; negative
mutagenic call (Test System: CHINESE HAMSTER OVARY, Strain/Indicator: CHO (HGPRT)/6-THIOGUANINE, Metabolic Activation: RAT, LIVER, S-9, AROCLOR 1254): inactive; negative
mutagenic call (Test System: E.COLI, Strain/Indicator: WP2UVRA/PKM101, Metabolic Activation: NONE, Method: PREINCUBATION): inactive; negative
mutagenic call (Test System: E.COLI, Strain/Indicator: WP2UVRA/PKM101, Metabolic Activation: RAT LIVER S-9, PHENOBARBITAL AND BETA-NAPHTHOFLAVONE, Method: PREINCUBATION): inactive; negative
mutagenic call (Test System: UDS RAT HEPATOCYTES, Strain/Indicator: THY INCORP, Metabolic Activation: NONE, Method: SCINTILLATION SPECTROMETRY): inactive; negative

O=[N+]([O-])c1ccc(CCO)cc1
mutagenic call (Test System: AMES SALMONELLA TYPHIMURIUM, Strain/Indicator: TA97, Metabolic Activation: HAMSTER, LIVER, S-9, AROCLOR 1254 (10%), Method: PREINCUBATION): inactive; negative
mutagenic call (Test System: AMES SALMONELLA TYPHIMURIUM, Strain/Indicator: TA97, Metabolic Activation: NONE, Method: PREINCUBATION): inactive; negative
mutagenic call (Test System: AMES SALMONELLA TYPHIMURIUM, Strain/Indicator: TA97, Metabolic Activation: RAT, LIVER, S-9, AROCLOR 1254 (10%), Method: PREINCUBATION): inactive; negative
mutagenic call [5]: active; positive
mutagenic call [3]: active; positive
mutagenic call [6]: active; positive
mutagenic call [7]: active; positive
mutagenic call [4]: inactive; negative
mutagenic call [8]: active; positive
mutagenic call [9]: active; positive
mutagenic call [10]: inactive; negative
mutagenic call [11]: active; positive
